{"source": "ChEMBL document CHEMBL5537201", "about": "“Discovery of Unique Bis-Substituted Aromatic Amide Derivatives as Novel Highly Potent Antibiotics for Combating Methicillin-Resistant Staphylococcus aureus (MRSA)” (J Med Chem, 2024)", "key": {"Staphylococcus aureus [1]": {"test_system": "Staphylococcus aureus", "experiment": "Antimicrobial activity against Staphylococcus aureus N315 assessed as reduction in bacterial growth incubated for 24 hrs by two-fold broth dilution method", "assay_type": "functional"}, "[2]": {"experiment": "Hemolytic activity in rabbit Red blood cell assessed as hemolysis incubated for 1 hr by two-fold microdilution method", "assay_type": "toxicity, cell-based, Oryctolagus cuniculus, Erythrocyte", "details": "red blood cells (erythrocytes)"}, "[3]": {"experiment": "Selectivity index, ratio of HC50 for rabbit Red blood cell to MIC for Staphylococcus aureus ATCC6538", "assay_type": "toxicity", "details": "red blood cells (erythrocytes), read-out: Selectivity Index"}, "[4]": {"experiment": "Cytotoxicity against HEK293 cells assessed as reduction in cell viability measured after 24 hrs by CCK-8 method", "assay_type": "toxicity, cell-based", "details": "human"}, "Staphylococcus aureus [5]": {"test_system": "Staphylococcus aureus", "experiment": "Antimicrobial activity against Staphylococcus aureus ATCC6538 assessed as membrane fluidity measured after 35 mins", "assay_type": "functional, organism-based"}, "Staphylococcus aureus [6]": {"test_system": "Staphylococcus aureus", "experiment": "Antimicrobial activity against methicillin resistant Staphylococcus aureus clinical isolate MRS1 assessed as reduction in bacterial growth incubated for 24 hrs by two-fold broth dilution method", "assay_type": "functional"}, "Staphylococcus aureus [7]": {"test_system": "Staphylococcus aureus", "experiment": "Antimicrobial activity against methicillin resistant Staphylococcus aureus clinical isolate MRS23 assessed as reduction in bacterial growth incubated for 24 hrs by two-fold broth dilution method", "assay_type": "functional"}, "Staphylococcus aureus [8]": {"test_system": "Staphylococcus aureus", "experiment": "Antimicrobial activity against methicillin resistant Staphylococcus aureus clinical isolate MRS200 assessed as reduction in bacterial growth incubated for 24 hrs by two-fold broth dilution method", "assay_type": "functional"}, "Staphylococcus aureus [9]": {"test_system": "Staphylococcus aureus", "experiment": "Antimicrobial activity against methicillin resistant Staphylococcus aureus clinical isolate MRS153 assessed as reduction in bacterial growth incubated for 24 hrs by two-fold broth dilution method", "assay_type": "functional"}, "Staphylococcus aureus [10]": {"test_system": "Staphylococcus aureus", "experiment": "Induction of membrane morphological changes in Staphylococcus aureus ATCC6538 assessed as cell membrane deformation at 5 times of MIC measured after 0.5 hrs by FE-SEM analysis", "assay_type": "functional, organism-based"}, "Cell membrane [11]": {"test_system": "Cell membrane", "experiment": "Induction of Outer membrane disruption in Staphylococcus aureus ATCC6538 assessed as […] in fluorescence intensity measured upto 30 mins by NPN dye based fluorescence analysis", "assay_type": "cell membranes"}, "Cell membrane [12]": {"test_system": "Cell membrane", "experiment": "Induction of inner membrane permeabilization in Staphylococcus aureus ATCC6538 assessed as increase in blue fluorescence at 5 ug/ml by DAPI staining based analysis", "assay_type": "cell membranes", "details": "dose 5.0 µg/ml"}, "Cell membrane [13]": {"test_system": "Cell membrane", "experiment": "Induction of inner membrane permeabilization in Staphylococcus aureus ATCC6538 assessed as increase in red fluorescence at 5 ug/ml by PI staining based analysis", "assay_type": "cell membranes", "details": "dose 5.0 µg/ml"}, "Cell membrane [14]": {"test_system": "Cell membrane", "experiment": "Induction of inner membrane permeabilization in methicillin resistant Staphylococcus aureus clinical isolate MRS153 assessed as increase in red fluorescence at 5 ug/ml by PI staining based analysis", "assay_type": "cell membranes", "details": "dose 5.0 µg/ml"}, "Cell membrane [15]": {"test_system": "Cell membrane", "experiment": "Induction of inner membrane permeabilization in Staphylococcus aureus ATCC6538 assessed as increase in […] fluorescence at 5 ug/ml by PI staining based analysis", "assay_type": "cell membranes", "details": "dose 5.0 µg/ml"}, "Cell membrane [16]": {"test_system": "Cell membrane", "experiment": "Induction of inner membrane permeabilization in methicillin resistant Staphylococcus aureus clinical isolate MRS153 assessed as increase in […] fluorescence at 5 ug/ml by PI staining based analysis", "assay_type": "cell membranes", "details": "dose 5.0 µg/ml"}, "Cell membrane [17]": {"test_system": "Cell membrane", "experiment": "Induction of inner membrane permeabilization in Staphylococcus aureus ATCC6538 assessed as disruption of cell membrane by measuring rightward shift measured after by PI staining based flow cytometry analysis", "assay_type": "cell membranes"}, "Cell membrane [18]": {"test_system": "Cell membrane", "experiment": "Induction of inner membrane permeabilization in methicillin resistant Staphylococcus aureus clinical isolate MRS153 assessed as disruption of cell membrane by measuring rightward shift measured after by PI staining based flow cytometry analysis", "assay_type": "cell membranes"}, "Staphylococcus aureus [19]": {"test_system": "Staphylococcus aureus", "experiment": "Bactericidal activity against Staphylococcus aureus ATCC6538 at 5 ug/ml measured upto 150 mins", "assay_type": "functional, organism-based", "details": "dose 5.0 µg/ml"}, "Staphylococcus hominis": {"test_system": "Staphylococcus hominis", "experiment": "Bactericidal activity against multidrug-resistant Staphylococcus hominis at 5 ug/ml measured upto 150 mins", "assay_type": "functional, organism-based", "details": "dose 5.0 µg/ml"}, "Staphylococcus aureus [20]": {"test_system": "Staphylococcus aureus", "experiment": "Bactericidal activity against vancomycin-resistant Staphylococcus aureus ATCC6538 measured upto 120 mins by colony counting method", "assay_type": "functional, organism-based"}, "Cell membrane [21]": {"test_system": "Cell membrane", "experiment": "Disruption of cell membrane integrity in Staphylococcus aureus ATCC6538 assessed as increase in fluorescence intensity at 1 to 26 times MIC measured upto 36 mins ethidium bromide uptake assay", "assay_type": "cell membranes"}, "Cell membrane [22]": {"test_system": "Cell membrane", "experiment": "Induction of cytoplasmic membrane depolarization in Staphylococcus aureus ATCC6538 assessed as increase in fluorescence intensity measured upto 120 mins by DiSC3(5) dye based fluorescence method", "assay_type": "cell membranes"}, "Staphylococcus aureus [23]": {"test_system": "Staphylococcus aureus", "experiment": "Antimicrobial activity against Staphylococcus aureus ATCC6538 assessed as proton dynamic dissipation at pH 5 to 11", "assay_type": "functional, organism-based"}, "Staphylococcus aureus [24]": {"test_system": "Staphylococcus aureus", "experiment": "Binding affinity to Staphylococcus aureus ATCC6538 Phosphatidylglycerol assessed as change in MIC at upto 256 ug/ml measured after 22 hrs", "details": "dose <= 256.0 µg/ml"}, "Staphylococcus aureus [25]": {"test_system": "Staphylococcus aureus", "experiment": "Antimicrobial activity against methicillin resistant Staphylococcus aureus clinical isolate MRS153 assessed as increase in ROS levels measured upto 90 mins by H2DCFDA probe based flow cytometry", "assay_type": "functional, organism-based"}, "Staphylococcus aureus [26]": {"test_system": "Staphylococcus aureus", "experiment": "Antimicrobial activity against methicillin resistant Staphylococcus aureus clinical isolate MRS153 assessed as increase in ROS levels measured upto 180 mins in presence of 2,2'-bipyridyl and thiourea by H2DCFDA probe based flow cytometry", "assay_type": "functional, organism-based"}, "[27]": {"experiment": "Toxicity in BALB/c mouse assessed as effect on body weight at 50 mg/kg, iv measured upto 8 days", "assay_type": "organism-based", "details": "in vivo, 192 h, time < 8 day"}, "[28]": {"experiment": "Toxicity in BALB/c mouse assessed as as change in AST level at 25 to 50 mg/kg, iv", "assay_type": "organism-based", "details": "in vivo, dose 25-50 mg/kg"}, "[29]": {"experiment": "Toxicity in BALB/c mouse assessed as as change in ALT level at 25 to 50 mg/kg, iv", "assay_type": "organism-based", "details": "in vivo, dose 25-50 mg/kg"}, "[30]": {"experiment": "Toxicity in BALB/c mouse assessed as as change in BUN level at 25 to 50 mg/kg, iv", "assay_type": "organism-based", "details": "in vivo, dose 25-50 mg/kg"}, "[31]": {"experiment": "Toxicity in BALB/c mouse assessed as as effect on heart at 25 to 50 mg/kg, iv by H and E staining based analysis", "assay_type": "organism-based", "details": "in vivo, dose 25-50 mg/kg"}, "[32]": {"experiment": "Toxicity in BALB/c mouse assessed as as effect on lung at 25 to 50 mg/kg, iv by H and E staining based analysis", "assay_type": "organism-based", "details": "in vivo, dose 25-50 mg/kg"}, "Staphylococcus aureus [33]": {"test_system": "Staphylococcus aureus", "experiment": "In vivo antibacterial activity against methicillin-resistant Staphylococcus aureus clinical isolate MRS153 infected in C57BL/6N mouse model assessed as reduction in bacterial load in kidney at 3.125 to 12.5 mg/kg, iv measured after 24 hrs", "assay_type": "functional, organism-based", "details": "dose 3.125-12.5 mg/kg"}, "Staphylococcus aureus [34]": {"test_system": "Staphylococcus aureus", "experiment": "In vivo antibacterial activity against methicillin-resistant Staphylococcus aureus clinical isolate MRS153 infected in C57BL/6N mouse model assessed as reduction in bacterial load in spleen at 3.125 to 12.5 mg/kg, iv measured after 24 hrs", "assay_type": "functional, organism-based", "details": "dose 3.125-12.5 mg/kg"}, "Staphylococcus aureus [35]": {"test_system": "Staphylococcus aureus", "experiment": "In vivo antibacterial activity against methicillin-resistant Staphylococcus aureus clinical isolate MRS153 infected in C57BL/6N mouse model assessed as reduction in bacterial load in lung at 3.125 to 12.5 mg/kg, iv measured after 24 hrs", "assay_type": "functional, organism-based", "details": "dose 3.125-12.5 mg/kg"}, "Staphylococcus aureus [36]": {"test_system": "Staphylococcus aureus", "experiment": "Antibacterial activity against methicillin-resistant Staphylococcus aureus clinical isolate MRS153 infected in C57BL/6N mouse model assessed as improvement in survival rate at 3.125 to 12.5 mg/kg, iv administered as single dose measured for 7 days", "assay_type": "functional, organism-based", "details": "dose 3.125-12.5 mg/kg, time 7.0 day"}, "Staphylococcus aureus [37]": {"test_system": "Staphylococcus aureus", "experiment": "Upregulation of ABC transport family genes in Staphylococcus aureus ATCC6538 at 5 ug/ml incubated for 2 hrs by RNA sequencing analysis", "assay_type": "functional", "details": "dose 5.0 µg/ml"}}, "note": "Active and inactive are the calls of the source. The rule behind the calls is not given here."}
{"smiles": "O=C(CCC(F)(F)F)N(Cc1cc2ccccc2s1)c1cc(-c2noc(C(F)(F)F)n2)ccc1O", "values": [{"measurement": "MIC", "setting": "Staphylococcus aureus [1]", "result": 0.25, "unit": "µg/mL"}, {"measurement": "HC50 at 1 h", "setting": "[2]", "result": 2400, "unit": "µg/mL"}, {"measurement": "selectivity ratio", "setting": "[3]", "result": "> 1000"}, {"measurement": "IC50 at 24 h", "setting": "[4]", "result": 16.9, "unit": "µg/mL"}, {"measurement": "Activity", "setting": "Staphylococcus aureus [5]", "result": "Active"}, {"measurement": "MIC", "setting": "Staphylococcus aureus [6]", "result": 1, "unit": "µg/mL"}, {"measurement": "MIC", "setting": "Staphylococcus aureus [7]", "result": 2, "unit": "µg/mL"}, {"measurement": "MIC", "setting": "Staphylococcus aureus [8]", "result": 2, "unit": "µg/mL"}, {"measurement": "MIC", "setting": "Staphylococcus aureus [9]", "result": 1, "unit": "µg/mL"}, {"measurement": "Activity", "setting": "Staphylococcus aureus [10]", "result": "Active"}, {"measurement": "Activity", "setting": "Cell membrane [11]", "result": "Dose-Dependent Effect"}, {"measurement": "Activity", "setting": "Cell membrane [12]", "result": "Active"}, {"measurement": "Activity", "setting": "Cell membrane [13]", "result": "Active"}, {"measurement": "Activity", "setting": "Cell membrane [14]", "result": "Active"}, {"measurement": "Activity", "setting": "Cell membrane [15]", "result": "Active"}, {"measurement": "Activity", "setting": "Cell membrane [16]", "result": "Active"}, {"measurement": "Activity", "setting": "Cell membrane [17]", "result": "Active"}, {"measurement": "Activity", "setting": "Cell membrane [18]", "result": "Active"}, {"measurement": "Activity", "setting": "Staphylococcus aureus [19]", "result": "Active"}, {"measurement": "Activity", "setting": "Staphylococcus hominis", "result": "Active"}, {"measurement": "Activity", "setting": "Staphylococcus aureus [20]", "result": "Dose-Dependent Effect"}, {"measurement": "Activity", "setting": "Cell membrane [21]", "result": "Active"}, {"measurement": "Activity", "setting": "Cell membrane [22]", "result": "Active"}, {"measurement": "Activity", "setting": "Staphylococcus aureus [23]", "result": "Active"}, {"measurement": "Activity", "setting": "Staphylococcus aureus [24]", "result": "inactive"}, {"measurement": "Activity", "setting": "Staphylococcus aureus [25]", "result": "Active"}, {"measurement": "Activity", "setting": "Staphylococcus aureus [26]", "result": "inactive"}, {"measurement": "Activity", "setting": "[27]", "result": "Non-Toxic"}, {"measurement": "Activity", "setting": "[28]", "result": "Non-Toxic"}, {"measurement": "Activity", "setting": "[29]", "result": "Non-Toxic"}, {"measurement": "Activity", "setting": "[30]", "result": "Non-Toxic"}, {"measurement": "Activity", "setting": "[31]", "result": "Non-Toxic"}, {"measurement": "Activity", "setting": "[32]", "result": "Non-Toxic"}, {"measurement": "Activity", "setting": "Staphylococcus aureus [33]", "result": "Active"}, {"measurement": "Activity", "setting": "Staphylococcus aureus [34]", "result": "Active"}, {"measurement": "Activity", "setting": "Staphylococcus aureus [35]", "result": "Active"}, {"measurement": "Activity", "setting": "Staphylococcus aureus [36]", "result": "Active"}, {"measurement": "Activity", "setting": "Staphylococcus aureus [37]", "result": "Active"}]}
